Data set [1] can be described thus: Metabolic stability in mouse liver microsomes. In kind it is in vitro ADME. The conditions noted are these: pH 7.4, read-out: Metabolic Stability MLM t1/2.
Data set [2] can be described thus: Mouse oral PK and tissue distribution, fed state. The data set is classed as in vivo. To be noted: for Tmax / AUC(0-t) / Cmax: male, C57BL/6, mouse; for AUC(0-t): read-out: Plasma AUC0-18h; for improvement in lung AUC over TXL / improvement in lung AUC over non-BOG counterpart (21a vs 15a, 21b vs 15b) / increase in plasma AUC relative to TXL / increase in plasma AUC relative to non-BOG counterpart (21a vs 15a, 21b vs 15b) / increase in plasma Cmax relative to TXL / increase in plasma Cmax relative to non-BOG counterpart (21a vs 15a, 21b vs 15b): 10 mg/kg oral. An excerpt:
Given the increased packaging of the CF3-modified lipids into CMs compared to their ω-unmodified congeners, we selected these compounds for PK studies in mice. We hypothesized that, following oral administration, our modified prodrugs would favor CM-mediated transport into the lymphatics over absorption into mesenteric veins feeding into the portal system. By circumventing direct transport to the liver, these prodrugs are expected to achieve elevated levels in the lung relative to the liver, as lymph empties into the jugular venous angle and mixes with blood en route to the pulmonary arteries (Figure ). For all mouse PK experiments, prodrugs were formulated in a 9:1 mixture of olive oil and ethanol, then administered to male C57BL/6 mice via oral gavage at a dose of 10 mg/kg. Organs (liver, lung, and plasma) were harvested at 1, 2, 4, 8, and 18 h postdose, per the protocol described by our groups previously. Concentrations of prodrug were quantified using LC-MS/MS after tissue homogenization, extraction, and sample preparation.
The compounds TXL, 15a, 15b, 21a, 21b, and a vehicle control were prepared at a concentration of 1 mg/mL in a 90:10 solution of olive oil (Sigma-Aldrich, cat. No. O1514) and 190-proof ethanol. The dosing for each mouse was calculated based on individual body weights to achieve a final dose of 10 mg/kg. For example, a 20 g mouse would receive 200 μL of the 1 mg/mL drug formulation, while a 25 g mouse would receive 250 μL.
In accordance with the American Chemical Society Guidelines to Publication of Chemical Research, we affirm the use of standard ethical practices when housing and handling research animals, as ensured by the Emory University’s Institutional Animal Care and Use Committee (IACUC) and the Division of Animal Resources (DAR) through a rigorous protocol review, amendment, and approval process. A total of 220 C57BL6/J male mice (aged 11–12 weeks, weight, 22–30 g) were used for these studies. Each mouse was weighed, recorded, and ear-clipped for identification. The dosing for each mouse was calculated based on individual body weights to achieve a final dose of 10 mg/kg. Animals were anesthetized using isoflurane gas before receiving a single dose of drug prepared as described above using a 22-gauge gavage needle attached to a calibrated syringe.
Time points for tissue collection were 1, 2, 4, 8, and 18 h for unfasted mice, and 1, 2, 4, 8, and 24 h for fasted mice. At each time point, the mice (n = 4 per compound per time point) were anesthetized using isoflurane and subjected to cardiac puncture for blood collection into EDTA-coated tubes. The collected blood samples were immediately placed on ice before the mice were humanely euthanized via cervical dislocation. Brain, liver, lungs, and kidneys were harvested, rinsed in PBS, and placed in prelabeled tubes. Tissues were flash-frozen in liquid nitrogen then transferred to dry ice for storage.
Blood samples were collected into EDTA-coated tubes and centrifuged at 400 RCF for 10 min at 4 °C to separate plasma from the cellular components. The plasma layer was carefully pipetted off and stored in separate prelabeled and preweighed tubes. All tissues were stored at −80 °C until time for processing.
Tissues were weighed (∼50 mg) into homogenization tubes and ACN containing a 10 μM ITSD was added to achieve a final solvent-to-tissue ratio of 4:1. Homogenization beads were added, and the tissues were processed (Biotage Lysera, part no. 19–060) using two 20 s pulses with a 10 s interval period. Homogenate was centrifuged at maximum speed for 1 h, supernatant collected and analyzed via LC-MS using the method described previously. For plasma samples, a 50 μL aliquot was added 200 μL of ACN containing ITSD. The mixture was vortexed thoroughly and then centrifuged to precipitate proteins, with the supernatant collected and analyzed via LC-MS. […]

Data set [3] is described as follows: Metabolic stability in human liver microsomes. In kind it is in vitro ADME. To be noted: pH 7.4, read-out: Metabolic Stability HLM t1/2. As to the method:
Assays employed human liver microsomes (HLMs, 20 mg/mL) from Xenotech. A 10 mM NADPH stock was prepared in deionized H2O, and test compounds were dissolved in 100% MeOH to a final concentration of 10 mM. The stock solutions were diluted to 500 μM in 100 mM potassium phosphate buffer (pH 7.4), keeping the final MeOH concentration below 0.2%. Reaction mixtures were prepared by combining 928 μL phosphate buffer, 55 μL liver microsomes, and the test compound solution to a final concentration of 3 μM. Verapamil was used as a positive control. The reactions were initiated with the addition of 110 μL of 10 mM NADPH. Aliquots were taken in duplicate at 0, 5, 10, 15, and 30 min, quenched with 100 μL of cold MeOH containing 2 μM internal standard (d 5-7-ethoxy coumarin), and centrifuged at 12,000 RCF for 5 min. The supernatants were then transferred to LC-MS vials for analysis. The average of each duplicate was normalized to the 0 min time point, representing 100% remaining (0% metabolism).

The mark [4] stands for this setting: in vivo, po, 10 mg/kg, single oral dose 10 mg/kg, fed mice, read-out: Liver Tmax.
[5] abbreviates: in vivo, po, 10 mg/kg, single oral dose 10 mg/kg, fed mice, read-out: Lung Tmax.
Setting [6] is: in vivo, po, 10 mg/kg, single oral dose 10 mg/kg, fed mice, read-out: Plasma Tmax.
The mark [7] stands for this setting: in vivo, single oral dose 10 mg/kg, fed mice.
[8] abbreviates: in vivo, single oral dose 10 mg/kg, fed mice, read-out: Plasma Cmax.
The mark [9] stands for this setting: single oral dose 10 mg/kg, fed mice.
Setting [10] is: liver, single oral dose 10 mg/kg, fed mice, read-out: Liver Tmax.
[11] abbreviates: plasma, single oral dose 10 mg/kg, fed mice.
[12] abbreviates: plasma, single oral dose 10 mg/kg, fed mice, read-out: Plasma Tmax.

Structures are written as SMILES. Read-outs that look alike come from different tables or passages of the source.

Take `CCCCCCCCCCCCCCCCOCCCOP(=O)(O)CO[C@H](C)Cn1cnc2c(N)ncnc21` [TXL, hexadecyloxypropyl (HDP)-TFV, reference compound]: in data set [1], the half-life at 3 µM was greater than 2 h. In addition, the Tmax in data set [2] (setting [4]) was 2 h; in data set [2] (setting [5]), 8 h; in data set [2] (setting [6]), 8 h; in data set [2] (in vivo, po, 10 mg/kg, tissue not stated, read-out: Tmax (fed)) it was 8 h. Also, the AUC(0-t) in data set [2] (setting [7]) worked out at 298 ng·h/mL. The Cmax in data set [2] (setting [8]) worked out at 29.1 ng/mL. Also, the “Liver AUC0-18h” value in data set [2] (setting [9]) is given as 25,600 h*ng/g. The “Liver Cmax” value in data set [2] (setting [9]) is 2,660 ng/g. In addition, in data set [2] (setting [9]), the “Lung Cmax” value was 583 ng/g.
With `C[C@H](Cn1cnc2c(N)ncnc21)OCP(=O)(O)OC[C@H](COCCCCCCCCCCCCCCCCCC(F)(F)F)OCc1ccccc1` [21b, Ammonium[(1R)-2-(6-aminopurin-9-yl)-1-methyl-ethoxy]methyl-[(2S)-2-benzyloxy-3-(18,18,18-trifluorooctadecoxy)propoxy]phosphinate], in data set [3], the half-life at 3 µM was greater than 2 h. Further, in data set [1], the half-life at 3 µM is greater than 2 h. Moreover, in data set [2] (fed mice), the “improvement in lung AUC over TXL” value is recorded as 4 fold; the “improvement in lung AUC over non-BOG counterpart (21a vs 15a, 21b vs 15b)” value is reported as 4 fold; the “increase in plasma AUC relative to TXL” value is reported as 15 fold; the “increase in plasma AUC relative to non-BOG counterpart (21a vs 15a, 21b vs 15b)” value was 5 fold. In data set [2] (fed mice), the “increase in plasma Cmax relative to TXL” value is on record as 28 fold and the “increase in plasma Cmax relative to non-BOG counterpart (21a vs 15a, 21b vs 15b)” value was determined as 8 fold. In data set [2] (setting [10]), the Tmax turned out to be 4 h. Also, the Tmax in data set [2] (lung, single oral dose 10 mg/kg, fed mice, read-out: Lung Tmax) stood at 8 h. Also, in data set [2] (setting [11]), the Cmax turned out to be 802 ng/mL and the AUC(0-t) worked out at 4530 ng·h/mL. Also, the time of peak concentration (Tmax) in data set [2] (setting [12]) was determined as 2 h. Also, in data set [2] (setting [9]), the “Liver AUC0-18h” value is reported as 218,000 h*ng/g, the “Liver Cmax” value is 22,000 ng/g, the “Lung AUC0-18h” value was 31,100 h*ng/g and the “Lung Cmax” value was 3,000 ng/g.
As to `C[C@H](Cn1cnc2c(N)ncnc21)OCP(=O)(O)OC[C@H](COCCCCCCCCCCCCCCCC(F)(F)F)OCc1ccccc1` [21a, Ammonium[(1R)-2-(6-Aminopurin-9-yl)-1-methyl-ethoxy]methyl-[(2S)-2-benzyloxy-3-(16,16,16-trifluorohexadecoxy)propoxy]phosphinate], in data set [3], the half-life at 3 µM was greater than 2 h. The half-life at 3 µM in data set [1] is greater than 2 h. Further, in data set [2] (fed mice), the “improvement in lung AUC over TXL” value was found to be 10 fold; the “improvement in lung AUC over non-BOG counterpart (21a vs 15a, 21b vs 15b)” value is given as 9 fold; the “increase in plasma AUC relative to TXL” value amounted to 16 fold; the “increase in plasma AUC relative to non-BOG counterpart (21a vs 15a, 21b vs 15b)” value is listed as 7 fold. Further, in data set [2] (fed mice), the “increase in plasma Cmax relative to TXL” value is reported as 32 fold and the “increase in plasma Cmax relative to non-BOG counterpart (21a vs 15a, 21b vs 15b)” value is recorded as 7 fold. Moreover, the time of peak concentration (Tmax) in data set [2] (setting [10]) came out at 4 h. Moreover, the Tmax in data set [2] (lung, po, 10 mg/kg, tissue not stated, read-out: Tmax (fed)) was found to be 8 h. In addition, in data set [2] (setting [11]), the concentration peaked (Cmax) at 915 ng/mL and the AUC(0-t) was found to be 4710 ng·h/mL. The Tmax in data set [2] (setting [12]) turned out to be 1 h. In data set [2] (setting [9]), the “Liver AUC0-18h” value is 564,000 h*ng/g, the “Liver Cmax” value was 37,600 ng/g, the “Lung AUC0-18h” value is 72,300 h*ng/g and the “Lung Cmax” value is given as 7,330 ng/g.
`C[C@H](Cn1cnc2c(N)ncnc21)OCP(=O)(O)OCCCOCCCCCCCCCCCCCCCC(F)(F)F` [15a, Ammonium[(1R)-2-(6-aminopurin-9-yl)-1-methyl-ethoxy]methyl-[3-(16,16,16-trifluorohexadecoxy)propoxy]phosphinate]: the half-life at 3 µM in data set [3] and in data set [1] was greater than 2 h in each case. Besides, the time to peak (Tmax) in data set [2] (setting [4]) was 2 h; in data set [2] (setting [5]) it was 8 h; in data set [2] (setting [6]), 2 h. Further, in data set [2] (setting [7]), the AUC(0-t) came to 706 ng·h/mL. Besides, in data set [2] (setting [8]), the Cmax came out at 127 ng/mL. Besides, the “Liver AUC0-18h” value in data set [2] (setting [9]) is listed as 190,000 h*ng/g. Moreover, the “Liver Cmax” value in data set [2] (setting [9]) is recorded as 27,000 ng/g. Also, the “Lung Cmax” value in data set [2] (setting [9]) was determined as 729 ng/g.

The values are drawn from paper PMC12441861, “Next-Generation Lipid Prodrugs Orally Deliver Tenofovir via Enhanced Chylomicron Incorporation” (ACS Pharmacology & Translational Science, 2025).
